Here are results for 21 compounds from patent US12479836B2, “Sphingosine-1-phosphate receptor agonist, preparation method therefor, and pharmaceutical composition containing same as active ingredient” (priority 2019, dated 2025).

pEC50: −log10 of the molar value.

In the test the target is T1, human sphingosine-1-phosphate 1 receptor (S1P1 receptor) (Homo sapiens, UniProt P21453).
T1 construct: host or cells: CHO-K1
T1 sequence (P21453 whole entry): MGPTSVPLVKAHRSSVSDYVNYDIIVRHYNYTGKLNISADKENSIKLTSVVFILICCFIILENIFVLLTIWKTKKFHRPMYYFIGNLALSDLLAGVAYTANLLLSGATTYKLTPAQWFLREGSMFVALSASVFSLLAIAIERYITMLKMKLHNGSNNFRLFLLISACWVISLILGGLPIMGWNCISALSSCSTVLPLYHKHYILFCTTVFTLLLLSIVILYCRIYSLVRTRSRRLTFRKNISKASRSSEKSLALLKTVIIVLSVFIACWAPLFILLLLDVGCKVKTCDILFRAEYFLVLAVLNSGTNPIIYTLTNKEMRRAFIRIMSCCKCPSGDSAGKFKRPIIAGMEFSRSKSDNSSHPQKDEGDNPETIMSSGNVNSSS
The experiment in a line: Ca2+ inducing ability (calcium increase, Calcium 5 assay kit) in CHO cells overexpressing human S1P1 receptor. In kind it is cell-based. As to the method: Experimental Example: Evaluation of Ca^2+ Inducing Ability of a Test Compound Using a Cell Line Expressing Human Sphingosine-1-Phosphate
It is a functional test method in which a therapeutic efficacy of an agonist compound is determined by an increase in calcium in CHO (Chinese hamster ovary) cells, which overexpress human sphingosine-1-phosphate 1 receptor (S1P1 receptor) that react with sphingosine-1-phosphate (S1P). […] coupled to Gi protein that reacts with the S1P1 receptor and increases intracellular calcium concentration. CHO-K1 cells, which are used for preparing a stable cell line, show no change in the calcium concentration by S1P, and thus they are good for checking signals from human S1P receptors after transfecting the cells with each subtype of the receptors.
To prepare CHO cells which overexpress human S1P1-S1P5, human clones for each subtype having HA at the N terminal residue (S1P1: EDG010 TN00, S1P2: EDG020TN00, S1P3: EDG030TN00, S1P4: EDG060TN00, S1P5: EDG080TN00) were purchased from Missouri S&T cDNA Resource Center and co-transfected with G-protein alpha subunit (G-alpha-16) into CHO-K1 cells. After separating cells by fluorescence-activated cell sorting (FACS, LK BioScience, JSAN) using HA-antibodies (MACS, Anti-HA-PE), they were selectively cultured in the medium with 10% FBS (Gibco, USA), 0.5 mg/mL Geneticin (Gibco) and 0.2 mg/mL Hygromycin B F12 (Gibco) to obtain the desired cells.
A calcium measurement kit (Calcium 5 assay kit, Molecular Devices) was used to select an agonist compound. The principle of calcium measurement is that calcium-sensitive dyes are applied to cells, they enter into the cytoplasm of the cells during incubation, and when a ligand binds to a certain receptor to release calcium into the cytoplasm, the dyes bind to said calcium to induce fluorescence which is measured. This test method can sensitively measure only the intracellular calcium concentration change because any change that may occur outside the cells is masked by a masking dye.
The experimental procedure was as follows. One day before calcium measurement, CHO cells overexpressing hS1P1-hS1P5 were dispensed into a 96-well plate (bottom clear black well) in 3×10^4 cells per well and cultured at 37° C. under 5% carbon dioxide condition for one day. 100 μl of calcium dyes mixed with Assay Buffer (1×HBSS, 20 mM HEPES, 2.5 mM probenecid, pH 7.4) were dispensed into culture solution in well and cultured at 37° C. for one hour. Test compounds were dissolved in 100% DMSO to prepare 1 μl solution per each concentration, and each solution was mixed with 199 μl Assay Buffer such that the concentrations were […]. The plate cultured with the calcium dyes was put into FlaxstationII (Molecular Devices), and the prepared test compounds (the final concentrations of the test compounds: 10, 1, 0.1, 0.01, 0.001 and 0.0001 μM) were programmed to be automatically inoculated in 50 μl per each well. For a total of 90 seconds, relative fluorescence unit (RFU) values were measured. The value of Reference (S1P substance 1 μM) deducting the blank value was set as 100%, and EC50 values of the test compounds were calculated by prism.
For the compound `CC(C)Cn1nc(Cl)c2cc(COc3cc(F)c4c(c3)OCC(CN3CCCC(C(=O)O)CC3)=C4)ccc21` (stereo not drawn) [Example 21, 1-[7-(3-chloro-1-Isobutyl-1H-indazol-5-ylmethoxy)-5-fluoro-2H-chromene-3-ylmethyl]-azepane-4-carboxylic acid], the negative logarithm of the EC50 (pEC50) (commonly the negative decadic logarithm of the EC50, by convention in mol/L) was 7.84.

On to `CC(C)n1nc(Cl)c2cc(COc3cc(F)c4c(c3)OCC(CN3CCC(C(=O)O)CC3)=C4)ccc21` [Example 12, 1-[7-(3-chloro-1-H-isopropyl-1H-indazol-5-ylmethoxy)-5-fluoro-2H-chromene-3-ylmethyl]-piperidin-4-carboxyl acid], for which the negative logarithm of the EC50 (pEC50) is 7.84.

Take `CC(C)n1nc(Cl)c2cc(COc3ccc4c(c3)OCC(CN3CCC(C(=O)O)CC3)=C4)ccc21` [Example 4, 1-[7-(3-chloro-1-isopropyl-1H-indazol-5-ylmethoxy)-2H-chromene-3-ylmethyl]-piperidin-4-carboxylic acid]: the negative-log EC50 (pEC50) was 8.04.

On to `CC1=C(CN2CCC(C(=O)O)CC2)COc2cc(OCc3ccc4c(c3)c(Cl)nn4C(C)C)ccc21` [Example 10, 1-[7-(3-chloro-1-Isopropyl-1H-indazol-5-ylmethoxy)-4-methyl-2H-chromene-3-ylmethyl]-piperidin-4-carboxylic acid], for which the pEC50 was 8.56.

Regarding `CC(C)n1nc(Cl)c2cc(COc3ccc4c(c3)OCC(CN3CCCC(C(=O)O)CC3)=C4)ccc21` (stereo not drawn) [Example 15, 1-[7-(3-chloro-1-isopropyl-1H-indazol-5-ylmethoxy)-2H-chromene-3-ylmethyl]-azepane-4-carboxylic acid], the pEC50 is 8.20.

As to `CC(C)n1nc(Cl)c2cc(COc3ccc4c(c3)OCC(CN3CC(C(=O)O)C3)=C4)ccc21` [Example 2, 1-[7-(3-chloro-1-isopropyl-1H-indazol-5-ylmethoxy)-2H-chromene-3-ylmethyl]-azetidin-3-carboxylic acid], the pEC50 was 8.68.

As for `CC(C)n1nc(Cl)c2cc(COc3ccc4c(c3)OCC(CN3CC[C@H](C(=O)O)C3)=C4)ccc21` [Example 7, (S)-1-[7-(3-chloro-1-H-isopropyl-1H-indazol-5-ylmethoxy)-2H-chromene-3-ylmethyl]-pyrrolidin-3-carboxylic acid], the pEC50 is 8.24.

Consider `CC(C)n1nc(Cl)c2cc(COc3ccc4c(c3)OCC(CN3CCC(C(=O)O)CC3)=C4Cl)ccc21` [Example 11, 1-[4-chloro-7-(3-chloro-1-H-isopropyl-1H-indazol-5-ylmethoxy)-2H-chromene-3-ylmethyl]-piperidin-4-carboxylic acid], for which the pEC50 is 8.08.

`O=C(O)C1CCN(CC2=Cc3c(F)cc(OCc4ccc5c(c4)c(Cl)nn5C4CCCC4)cc3OC2)CC1` [Example 19, 1-[7-(3-chloro-1-cyclopentyl-1H-indazol-5-ylmethoxy)-5-fluoro-2H-chromene-3-ylmethyl]-piperidin-4-carboxylic acid]: the pEC50 is 7.15.

Consider `CCc1nn(C(C)C)c2ccc(COc3ccc4c(c3)OCC(CN3CCC(C(=O)O)CC3)=C4)cc12` [Example 14, 1-[7-(1-H-isopropyl-3-ethyl-1H-indazol-5-ylmethoxy)-2H-chromene-3-ylmethyl]-piperidin-4-carboxylic acid], for which the negative logarithm of the EC50 (pEC50) was 7.92.

In the case of `CC(C)n1nc(Cl)c2cc(COc3ccc4c(c3)OCC(CN3CCC[C@H](C(=O)O)C3)=C4)ccc21` [Example 6, (S)-1-[7-(3-chloro-1-H-isopropyl-1H-indazol-5-ylmethoxy)-2H-chromene-3-ylmethyl]-piperidin-3-carboxylic acid], the pEC50 was 7.89.

`CC(C)n1nc(Cl)c2cc(COc3ccc4c(c3)OCC(CN3CC[C@@H](C(=O)O)C3)=C4)ccc21` [Example 9, (R)-1-[7-(3-chloro-1-Isopropyl-1H-indazol-5-ylmethoxy)-2H-chromene-3-ylmethyl]-pyrrolidin-3-carboxylic acid]: the negative logarithm of the EC50 (pEC50) is 7.84.

As to `CC(C)n1nc(Cl)c2cc(COc3ccc4c(c3)OCC(CN3CCC[C@@H](C(=O)O)C3)=C4)ccc21` [Example 5, (R)-1-[7-(3-chloro-1-Isopropyl-1H-indazol-5-ylmethoxy)-2H-chromene-3-ylmethyl]-piperidin-3-carboxylic acid], the pEC50 was 7.96.

Turning to `O=C(O)C1CCN(CC2=Cc3ccc(OCc4ccc5c(c4)c(Cl)nn5CC4CC4)cc3OC2)CC1` [Example 18, 1-[7-(3-chloro-1-cyclopropylmethyl-1H-indazol-5-ylmethoxy)-2H-chromene-3-ylmethyl]-piperidin-4-carboxylic acid], the pEC50 is 7.19.

Take `CC(C)n1nc(Cl)c2cc(COc3ccc4c(c3)OCC(CN3CC(CCl)(C(=O)O)C3)=C4)ccc21` [Example 8, 1-[7-(3-chloro-1-isopropyl-1H-indazol-5-ylmethoxy)-2H-chromene-3-ylmethyl]-chloromethyl-azetidin-3-carboxylic acid]: the pEC50 was 8.20.

As to `CCCn1nc(Cl)c2cc(COc3ccc4c(c3)OCC(CN3CCC(C(=O)O)CC3)=C4)ccc21` [Example 17, 1-[7-(3-chloro-1-propyl-1H-Indazol-5-ylmethoxy)-2H-chromene-3-ylmethyl]-piperidin-4-carboxylic acid], the negative-log EC50 (pEC50) was 7.68.

On to `CCCn1nc(Cl)c2cc(COc3ccc4c(c3)OCC(CN3CC(C(=O)O)C3)=C4)ccc21` [Example 16, 1-[7-(3-chloro-1-propyl-1H-indazol-5-ylmethoxy)-2H-chromene-3-ylmethyl]-azetidin-3-carboxylic acid], for which the pEC50 was 7.36.

As for `CCCn1nc2ccc(COc3ccc4c(c3)OCC(CN3CC(C(=O)O)C3)=C4)cc2c1Cl` [Example 3, 1-[7-(3-chloro-2-propyl-2H-indazol-5-ylmethoxy)-2H-chromene-3-ylmethyl]-azetidin-3-carboxylic acid], the pEC50 was 7.15.

Consider `CC(C)Cn1nc(Cl)c2cc(COc3cc(F)c4c(c3)OCC(CN3CCC(C(=O)O)CC3)=C4)ccc21` [Example 20, 1-[7-(3-chloro-1-isobutyl-1H-indazol-5-ylmethoxy)-5-fluoro-2H-chromene-3-ylmethyl]-piperidin-4-carboxylic acid], for which the negative-log EC50 (pEC50) is 8.29.

Take `CC(C)n1nc(Cl)c2cc(COc3ccc4c(c3)OCC(CN(C)CC(=O)O)=C4)ccc21` [Example 1, {[7-(3-chloro-1-isopropyl-1H-indazol-5-ylmethoxy)-2H-chromene-3-ylmethyl]-methyl-amino}-acetic acid]: the negative-log EC50 (pEC50) was 8.39.

For the compound `CC(C)n1nc(C(F)(F)F)c2cc(COc3ccc4c(c3)OCC(CN3CCC(C(=O)O)CC3)=C4)ccc21` [Example 13, 1-[7-(1-Isopropyl-3-trifluoromethyl-1H-indazol-5-ylmethoxy)-2H-chromene-3-ylmethyl]-piperidin-4-carboxylic acid], the negative-log EC50 (pEC50) is 7.76.
